The test system of one assay is MDA-MB-231 cells. Description: MTS colorimetric survival assay. It counts as cell-based, human. As to conditions: agent alone, 72 h, read-out: IC50, inhibition of growth / survival. The protocol: FIG. 19A-E. Combination of cisplatin and mdivi-1 produces synergistic pro-apoptotic effect in multidrug resistant tumor cells. (A) MDA-MB-231 cells were treated with increasing doses of mdivi-1 for 72 h. The survival was assessed by MTS assay. […] (B) MDA-MB-231 cells were treated with increasing doses of cisplatin alone or the combination with 20 μM or 50 μM of mdivi-1 for 72 h. The survival was assessed by MTS assay. (C) MDA-MB-231 cells were exposed to cisplatin and mdivi-1 alone or combination at their IC50 or 0.5 fold of their IC50. The combination index (CI) and the normalized isobologram were generated using CompuSyn. […] The compounds were then washed out and the cell number was determined every 24 h by CyQuant assay. […] The number of apoptotic cells was determined with antibody recognizing cleaved caspase-3 followed by flow cytometry.
Cell proliferation was determined using a CyQUANT Direct Cell Proliferation Assay kit (Invitrogen), the activity of caspase-3/7 was measured using a Caspase-Glo 3/7 Assay Systems (Promega, Madison, Wis.), and the MTS colorimetric survival assay was performed using the CellTiter 96 AQueous One Solution Cell Proliferation Assay kit (Promega, Madison, Wis.), according to the manufacturer's instructions. The survival fractions were calculated after setting untreated control cells at 100%. […]

Assay [1] has as its system Drp1 wild-type (WT) and knockout (KO) SV40-transformed MEF cells. Description: Drp1 wild-type and knockout MEF cells: cleaved caspase-3, CyQuant, OCR. It counts as cell-based, mouse. The method, then:
FIG. 21A-F. Mdivi-1 enhances cisplatin sensitivity through Drp1-independent mechanisms. (A) Confirmation of the depletion of Drp1 in Drp1 knockout SV40-transformed MEF cells by western blot. (B) Drp1 wild-type (Drp1+/+) and knockout (Drp1−/−) MEF cells were treated as indicated for 20 h, and the number of apoptotic cells was determined by antibody recognizing cleaved caspase-3. […] (C) Drp1 wild-type and knockout MEF cells were treated with mdivi-1 for 24 h, and the cell number were determined by CyQuant assay. (D) OCR was measured after 1 h treatment of Drp1 wild-type and knockout MEF cells with DMSO or mdivi-1. (E) The combination effect of cisplatin with four analogs of mdivi-1. […]
Cell proliferation was determined using a CyQUANT Direct Cell Proliferation Assay kit (Invitrogen), the activity of caspase-3/7 was measured using a Caspase-Glo 3/7 Assay Systems (Promega, Madison, Wis.), and the MTS colorimetric survival assay was performed using the CellTiter 96 AQueous One Solution Cell Proliferation Assay kit (Promega, Madison, Wis.), according to the manufacturer's instructions. The survival fractions were calculated after setting untreated control cells at 100%. […] The cytotoxic interactions between the two drugs was determined using the method of Chou and Talalay. The combination index (CI) was determined using a computer program CompuSyn. […]

Assay [2] relates to primary epithelial ovarian cancer (EOC) cells. Briefly: Ex vivo drug sensitivity assay on primary cells from ovarian cancer patient ascites. It counts as cell-based, human. The settings on record: MTS 72 h. The protocol:
FIG. 20A-C. The combination of cisplatin and mdivi-1 efficiently overcomes acquired cisplatin resistance in human ovarian cancer cells, including those from endstage cisplatin- and treatment-refractory patient. (A) The comparison of cisplatin sensitivity in ovarian cancer cells A2780 and their derivative cisplatin-resistant A2780cis cells (left panel). A2780cis cells were treated with cisplatin alone or in combination with mdivi-1 for 72 h (right panel). The survival was determined by MTS assay. (B and C) Ex vivo drug sensitivity assay using primary EOC cells isolated from ascites fluid of ovarian cancer patients (B, treatment-naïve; C, cisplatin-resistant). Apoptosis was measured by caspase-3/7 activity assay after 20 h exposure and the survival was measured by MTS assay after 72 h exposure. […]
Cell proliferation was determined using a CyQUANT Direct Cell Proliferation Assay kit (Invitrogen), the activity of caspase-3/7 was measured using a Caspase-Glo 3/7 Assay Systems (Promega, Madison, Wis.), and the MTS colorimetric survival assay was performed using the CellTiter 96 AQueous One Solution Cell Proliferation Assay kit (Promega, Madison, Wis.), according to the manufacturer's instructions. The survival fractions were calculated after setting untreated control cells at 100%. […] The cytotoxic interactions between the two drugs was determined using the method of Chou and Talalay. […]

In the case of `COc1cc(-n2c(=S)[nH]c3ccccc3c2=O)c(Cl)cc1Cl` [mdivi-1], the IC50 with MDA-MB-231 cells came to 55.9 ± 1.92 µM. For the same compound, the “mitochondrial respiration (OCR) in Drp1 WT and KO cells” value in assay [1] (1 h treatment) is recorded as “inhibition”. For the same compound, the “cell proliferation (CyQuant) in Drp1 WT and KO cells” value in assay [1] (24 h) is given as “inhibition of cell proliferation”.

With `N.N.[Cl][Pt][Cl]` [cisplatin], the IC50 in assay [2] (EOC cells of a patient not treated with cisplatin (treatment-naïve)) was around 7.97 µM; in assay [2] (EOC cells of a patient with clinically-defined cisplatin resistance), around 11.6 µM.

Values taken from patent publication US9492450B2, “Inhibition of dynamin related protein 1 to promote cell death” (University of Pittsburgh—of the Commonwealth System of …, priority 2011, dated 2016).
